Patent publication US20210062139A1, “CELL AGGREGATION SUPPRESSOR” (KANEKA CORPORATION, priority 2017, published 2021)

Experiments:
Type in all cases: cell-based
[1] = test system: human iPS cells (TkDN4-M cell line); test: Percentage of cells positive for undifferentiation markers (flow cytometry); settings: Day 5 of culture
Description: (§1) A cell suspension was prepared in the same manner as in Example 2, and separately, the cell aggregation suppressor was adjusted so that the final concentration of TRAP-6 (same as above) was 3.74 mg/mL (10 mM). Then the adjusted cell aggregation suppressor was added to the cell suspension so that the final concentration of the agonist of a thrombin receptor was 5 μM. Then the cells were seeded at a ratio of 4 mL/well in a 6-well plate for suspension culture (Sumitomo Bakelite Co., Ltd.). The cell-seeded plate was subjected to a swirling culture on a rotary shaker (OPTIMA, Inc.) at a speed of 75 rpm along the horizontal plane to draw a circle with a swirling width (diameter) of 25 mm, and cells were cultured in suspension under a condition at 5% CO2 and 37° C. After the next day of culture (Day 1 of culture), the culture medium was exchanged daily for fresh medium (Essential 8™ culture medium containing BSA (Wako Pure Chemical Industries, Ltd.) at a final concentration of 5 mg/mL), and the culture continued until Day 5 of culture. A control test was conducted using a cell suspension prepared under the same condition as described above except that TRAP-6 was not added. Images were obtained by phase contrast microscopy every day during culture. The concentration of glucose contained in the culture supernatant collected at the time of culture medium exchange was measured with biosensor BF-5iD (Prince Measuring Equipment Co., Ltd.) to calculate glucose consumption.
In addition, at Day 5 of culture, cell aggregates were collected, dispersed with Accutase, and then suspended in Essential 8™ culture medium containing 5 mg/mL BSA. A portion of this cell suspension was stained with trypan blue and the number of cells was counted. After the above cell suspensions were centrifuged at 300 g for 3 minutes, the supernatant was then removed, and the cells were washed with PBS (phosphate buffered saline). Next, the cells were fixed with 4% paraformaldehyde (Wako Pure Chemical Industries, Ltd.) at room temperature for 20 minutes, then washed 3 times with PBS. After cells were resuspended with 300 μL of PBS, 3 mL of cold methanol was added while stirring with voltex, and permeabilized at −20° C. overnight or more. After 3 washes with 3% FBS (fetal bovine serum)/PBS, cells were resuspended with 3% FBS (fetal bovine serum)/PBS and blocked at room temperature for 30 minutes to 1 hour. Subsequently, the cells were stained with fluorescently labeled anti-SOX2 antibodies (Cat. No. 656110, BioLegend, Inc.) and fluorescently labeled anti-OCT4 antibodies (Cat. No. 653703, BioLegend, Inc.) and fluorescently labeled anti-Nanog antibodies (Cat. No. 674010, BioLegend, Inc.) at 4° C. for 30 minutes to 1 hour. […] The resulting cells were analyzed on FACSVerse. […]

[2] = test system: human iPS cells (TkDN4-M cell line); test: Glucose consumption during suspension culture of human iPS cells; settings: TRAP-6 5 μM on Day 1, then TRAP-6-free medium, Day 1 to Day 5, compared to TRAP-6 non-added condition
Description: as §1, with “A control test was conducted using a cell suspension prepared under the same condition as described above except that TRAP-6 was not added. Images were obtained by phase contrast microscopy every day during culture.” left out

[3] = test system: human iPS cells (TkDN4-M cell line); test: Cell aggregation assay: suspension (swirling) culture of human iPS cells, phase contrast microscopy; settings: Day 1 of culture; for cell aggregation suppression (aggregate formation observed by microscopy): compared to only Y-27632
Description: TkDN4-M cell lines (Institute of Medical Science, The University of Tokyo) were used as human iPS cells. Human iPS cells were seeded on cell culture dishes coated with Vitronectin (Thermo Fisher Scientific Co., Ltd.) and subjected to a maintenance culture using Essential 8™ (Thermo Fisher Scientific Co., Ltd.) as the culture medium. Accutase (Thermo Fisher Scientific Co., Ltd.) was used as a cell detachment agent during passage. In addition, when the cells were seeded, Y-27632 (Wako Pure Chemical Industries, Ltd.) at a concentration of 10 μM was added to a culture medium. The culture medium was changed every day. For experiments, human iPS cells (the number of passage was 50 or less) were used.
The resulting cells were suspended in Essential 8™ culture medium comprising a final concentration of 5 mg/mL of BSA (Wako Pure Chemical Industries, Ltd.) and 10 μM of Y-27632 (Wako Pure Chemical Industries, Ltd.), and a portion thereof was stained with trypan blue and the number of cells was counted. The cell suspension was prepared so as to contain 2×10^5 cells per mL. […] Then the cells were seeded at a ratio of 1.3 mL/well in a 12-well plate for suspension culture (Sumitomo Bakelite Co., Ltd.). The cell-seeded plate was subjected to a swirling culture on a rotary shaker (OPTIMA, Inc.) at a speed of 90 rpm along the horizontal plane to draw a circle with a swirling width (diameter) of 25 mm, and cells were cultured in suspension under a condition at 5% CO2 and 37° C. At the next day after the start of culture (Day 1 of culture), images were obtained by phase contrast microscopy. A control test was conducted using a cell suspension prepared under the same condition as above except that Y-27632 and TRAP-6 were not added.
as §1
Cell suspensions were prepared in the same manner as in Example 2 using human iPS cells cultured with the protocol of Example 1, and instead of TRAP-6, a PAR-1 agonist (Proteinase Activated Receptor-1; PAR-1 agonist, ANASPEC, AS-62937, a C-terminal amidated peptide consisting of the amino acid sequence of TFLLRN (SEQ ID NO: 8)) was added so that a final concentration thereof was 32.8 μM or S1P (sphingosine-1-phosphate; Cayman, 62570) (positive control) was added so that the final concentration thereof was 0.8 μg/mL). Then, suspension culture and image acquisition were performed in the same manner as in Example 2.

[4] = test system: human iPS cells (TkDN4-M cell line); test: Size distribution of cell aggregates (width of widest portion in micrograph); settings: TRAP-6 5 μM, Day 1 of culture
Description: as §1
For cells cultured in suspension in the presence of TRAP-6 according to Example 3, 210 cell aggregates in an image acquired at Day 1 of culture were observed and compared using a micrograph scale, the width of the widest portion (referred to as “ϕ”) of each cell aggregate was measured, then distribution thereof was examined, and the average±standard deviation was calculated.

[5] = test system: human iPS cells (TkDN4-M cell line); test: Cell yield at Day 5 of suspension culture (trypan blue count); settings: TRAP-6 5 μM on Day 1, then TRAP-6-free medium; seeded 8×10^5 cells/well
Description: as §1, with “After the next day of culture (Day 1 of culture), the culture medium was exchanged daily for fresh medium (Essential 8™ culture medium containing BSA (Wako Pure Chemical Industries, Ltd.) at a final concentration of 5 mg/mL), and the culture continued until Day 5 of culture. A control test was conducted using a cell suspension prepared under the same condition as described above except that TRAP-6 was not added. Images were obtained by phase contrast microscopy every day during culture.” left out
Cell yields were also measured at Day 5 of culture. […] After that, the number of cells was counted using a hemocytometer to determine the cell yield.

[6] = TRAP-6 5 μM on Day 1, then TRAP-6-free medium

## Thrombin Receptor Activator for Peptide 6 [TRAP-6]
[1]; [6]
  percentage of cells positive for Nanog: ≥ 99%
  percentage of cells positive for OCT4: ≥ 98%
  percentage of cells positive for SOX2: ≥ 99%
[1]; aggregates formed by addition of Y-27632 and TRAP-6 (5 μM)
  undifferentiated state of human iPS cell aggregates: remained undifferentiated
[2]
  glucose consumption: greater than that under the TRAP-6 non-added condition
[3]; TRAP-6 2 μM with Y-27632 10 μM
  cell aggregation suppression (aggregate formation observed by microscopy): aggregation was suppressed and smaller aggregates were formed
[3]; TRAP-6 5 μM with Y-27632 10 μM, 6-well plate, 75 rpm, compared to no TRAP-6
  aggregate size observed by microscopy: formation of smaller aggregates
[3]; TRAP-6 10 μM with Y-27632 10 μM
  cell aggregation suppression (aggregate formation observed by microscopy): aggregation was suppressed and smaller aggregates were formed
[3]; TRAP-6 50 μM with Y-27632 10 μM
  cell aggregation suppression (aggregate formation observed by microscopy): aggregation was suppressed and smaller aggregates were formed
[4]
  percentage of cell aggregates with size (diameter) 40 μm or more and 300 μm or less: 100%
  percentage of cell aggregates with size (diameter) 60 μm or more and 300 μm or less: 100%
  percentage of cell aggregates with size (diameter) 80 μm or more and 300 μm or less: 98.0%
  percentage of cell aggregates with size (diameter) 100 μm or more and 300 μm or less: 97.0%
[4]; 210 cell aggregates
  average±standard deviation of cell aggregate size (diameter): 167.8±35.3 μm
[4]; size range 40- μm
  Number of cell aggregates by size: 0
  Percentage of cell aggregates by size: 0%
[4]; size range 60- μm
  Number of cell aggregates by size: 4
  Percentage of cell aggregates by size: 2%
[4]; size range 80- μm
  Number of cell aggregates by size: 2
  Percentage of cell aggregates by size: 1%
[4]; size range 100- μm
  Number of cell aggregates by size: 5
  Percentage of cell aggregates by size: 2%
[4]; size range 120- μm
  Number of cell aggregates by size: 25
  Percentage of cell aggregates by size: 12%
[4]; size range 140- μm
  Number of cell aggregates by size: 58
  Percentage of cell aggregates by size: 28%
[4]; size range 160- μm
  Number of cell aggregates by size: 56
  Percentage of cell aggregates by size: 27%
[4]; size range 180- μm
  Number of cell aggregates by size: 31
  Percentage of cell aggregates by size: 15%
[4]; size range 200- μm
  Number of cell aggregates by size: 13
  Percentage of cell aggregates by size: 6%
[4]; size range 220- μm
  Number of cell aggregates by size: 8
  Percentage of cell aggregates by size: 4%
[4]; size range 240- μm
  Number of cell aggregates by size: 3
  Percentage of cell aggregates by size: 1%
[4]; size range 260- μm
  Number of cell aggregates by size: 4
  Percentage of cell aggregates by size: 2%
[4]; size range 280- μm
  Number of cell aggregates by size: 1
  Percentage of cell aggregates by size: 0%
[4]; size range 300- μm
  Number of cell aggregates by size: 0
  Percentage of cell aggregates by size: 0%
[5]
  proliferation of seeded cells (cell yield) at Day 5 of culture: 8.5 fold

## C[C@@H](N)[C@H]1CC[C@H](C(=O)Nc2ccncc2)CC1 [Y-27632, 4-[(1R)-1-aminoethyl]-N-pyridin-4-ylcyclohexane-1-carboxamide]
[3]; Y-27632 10 μM alone, compared to control without Y-27632
  aggregate formation observed by microscopy: aggregates were formed

## CCCCCCCCCCCCC/C=C/[C@@H](O)[C@@H](N)COP(=O)(O)O [S1P, sphingosine-1-phosphate]
[3]; S1P 0.8 μg/mL (positive control) with Y-27632 10 μM
  cell aggregation suppression (aggregate formation observed by microscopy): aggregation was suppressed and smaller aggregates were formed
